Drawing on patent US10745380B2, “Pyridine derivatives and their use in the treatment of cancer and hemoglobinopathies” (CTXT PTY LTD, priority 2016, dated 2020), this text covers IC50 for two compounds.

Structures can show the parent of a compound that is named as a salt.

Assay [1] has as its target Full-length PRMT5 enzyme co-expressed with His6-MEP50 (Homo sapiens (Human), UniProt O14744). Put plainly: PRMT5 Biochemical Assay. The settings on record: Transcreener EPIGEN methyltransferase assay, histone H4 derived peptide substrate, 4 hours at 37 degree Celsius. The protocol: Assays PRMT5 Biochemical Assay
Compounds of the invention may be tested for in vitro activity in the following assay: A histone H4 derived peptide is used as substrate (amino acid sequence: […]NH2). Full-length PRMT5 enzyme (NCBI Reference sequence NP_006100.2) was co-expressed with His6-MEP50 in insect cells and purified via Nickel immobilized metal affinity and gel filtration chromatography (“the enzyme”).
The 6 μL reactions are run in Greiner brand black 384-well low volume assay plates. All reactions contained assay buffer (phosphate buffered saline, 0.01% (v/v) Tween-20, 0.01% (w/v) albumin from chicken egg white, 1 mM Dithiothreitol, 1 μM peptide substrate, 1 μM S-Adenosyl methionine, and 15 ng/reaction enzyme, with the enzyme being omitted from negative control reactions. Compounds were added in a volume of 100 nL from dilution series prepared in DMSO, positive and negative control reactions receiving the same volume DMSO without compound. The plates were sealed with adhesive seals and incubated for 4 hours at 37 degree Celsius. Reaction progress was measured using the Transcreener™ EPIGEN methyltransferase assay (BellBrook Labs, Madison, Wis.) as recommended by the manufacturer. To each reaction 2 μL detection mix were added, containing coupling enzymes, fluorescence polarisation tracer, and AMP antibody. […]

For another assay, the system named is TE11 cell line. Kind of assay: PRMT5 Biomarker Assay (symmetrical dimethylation of arginine, Histone H4 Arginine 3). The settings on record: TE11 cells, 72 hours incubation, Di-Methyl Histone H4 Arginine 3 level. It is filed as cell-based. The protocol: Compounds of the invention may be tested for potency to inhibit symmetrical dimethylation of arginine in the following assay:
The cell line TE11 was seeded at a density of 6,000 cells per well in 96 well optical quality tissue culture plates in DME medium and 10% foetal bovine serum, and allowed to adhere for 5 hours under standard culture conditions (37 degree Celsius, 5% CO2). Compound dilutions prepared in DMSO were added to the medium, with negative control wells reserved for treatment with DMSO only and maximum inhibition controls receiving a potent PRMT5 inhibitor compound at 1 μM concentration. After incubation for 72 hours, the cells were fixed with 3.7% formaldehyde in PBS for 30 minutes at room temperature, washed with phosphate buffer saline and blocked with Odyssey blocking buffer (LI-COR, Lincoln, Nebr.). Rabbit anti-Di-Methyl Histone H4 Arginine 3 specific antibody (Epigentek) in Odyssey blocking buffer was added and incubated for 14 hours at 4 degree Celsius. […] Plates were washed and read on a PerkinElmer Envision 2103 in fluorescence intensity scanning mode (24 scans across the well area). […] Using a Columbus image analysis pipeline, individual nuclei were located by Hoechst 33342 stain and the methylation level was calculated from the Alexa647-related intensity in the same area. […]

Sequence of Full-length PRMT5 enzyme co-expressed with His6-MEP50 (O14744 whole entry): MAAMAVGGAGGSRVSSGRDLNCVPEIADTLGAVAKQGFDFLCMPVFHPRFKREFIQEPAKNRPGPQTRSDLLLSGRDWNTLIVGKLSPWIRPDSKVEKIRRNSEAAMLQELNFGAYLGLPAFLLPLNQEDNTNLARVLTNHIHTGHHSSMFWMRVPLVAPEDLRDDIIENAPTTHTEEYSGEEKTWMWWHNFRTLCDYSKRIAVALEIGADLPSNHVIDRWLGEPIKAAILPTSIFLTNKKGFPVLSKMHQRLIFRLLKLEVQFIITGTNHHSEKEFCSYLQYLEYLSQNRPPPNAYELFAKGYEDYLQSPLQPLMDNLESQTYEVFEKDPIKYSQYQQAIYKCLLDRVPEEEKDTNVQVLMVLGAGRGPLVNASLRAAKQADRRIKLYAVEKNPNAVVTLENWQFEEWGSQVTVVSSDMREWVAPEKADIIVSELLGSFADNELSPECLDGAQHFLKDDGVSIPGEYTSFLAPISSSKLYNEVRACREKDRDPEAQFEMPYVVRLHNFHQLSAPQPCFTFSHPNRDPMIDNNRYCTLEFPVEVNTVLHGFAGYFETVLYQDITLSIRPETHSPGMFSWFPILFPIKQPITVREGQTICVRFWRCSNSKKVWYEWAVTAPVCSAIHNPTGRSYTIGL
Sequence of Full-length PRMT5 enzyme co-expressed with His6-MEP50 (Q9BQA1 whole entry partner): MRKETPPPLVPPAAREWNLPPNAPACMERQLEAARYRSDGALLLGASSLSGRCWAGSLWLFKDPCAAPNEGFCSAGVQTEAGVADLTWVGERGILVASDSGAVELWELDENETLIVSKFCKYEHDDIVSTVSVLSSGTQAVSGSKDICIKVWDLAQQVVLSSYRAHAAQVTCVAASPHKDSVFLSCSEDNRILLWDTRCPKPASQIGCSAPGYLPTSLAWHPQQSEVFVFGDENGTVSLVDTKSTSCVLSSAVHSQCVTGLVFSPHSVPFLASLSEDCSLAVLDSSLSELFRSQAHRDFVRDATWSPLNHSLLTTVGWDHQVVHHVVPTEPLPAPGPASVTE

As usually defined, the IC50 is the concentration needed to halve the response being measured. Low values mean greater potency, high ones weaker potency. Turning to `CCOc1nc(OCc2ccccc2)ccc1C(=O)NC[C@@H](O)CNC1Cc2ccccc2C1` [Compound 1, (S)-6-(Benzyloxy)-N-(3-((2,3-dihydro-1H-inden-2-yl)amino)-2-hydroxypropyl)-2-ethoxy nicotin amide hydrochloride], the IC50 in assay [1] was determined as 86 nM; with TE11 cell line it was 79 nM.
With `CC(=O)N1CCC(Nc2nccc(C(=O)NC[C@@H](O)CNC3Cc4ccccc4C3)c2Cl)CC1` [Compound 2], the IC50 in assay [1] came out at 105 nM; with TE11 cell line (Homo sapiens, TE-11) it was 35 nM.
